Measured values as given in patent publication US11903388B2 (priority 2018, dated 2024).

System: Aspergillus parasiticus B62
Assay type: cell-based

Row | SMILES | growth
1 | COC(=O)c1c(C)cc(O)cc1O [methyl-orsellinate] | inhibitory effects
2 | Cc1cc(OC(=O)c2c(C)cc(O)cc2O)cc(O)c1C(=O)O [Lecanoric acid] | inhibitory effects
